# Test results published in patent US20030104079A1, “Skin tissue regeneration promoters comprising ginsenoside Rb1” (Japan Science and Technology Corporation, Japan, priority 2000, published 2003).
# Test system: cuttings of pothos
# Test: Hydroponic culture of cuttings of pothos (rooting)
# Set-up: species or system pothos (Epipremunum aureum, golden pothos)
# Details: 100 fg/ml in water
# Protocol: Next, we have examined whether ginsenosides, especially ginsenoside Rb1, can promote generation, regeneration or reconstruction of not only skin tissue or mouth mucosal tissue but also plant tissues. For that purpose, one of foliage plants, pothos is selected. Six cuttings resembled with each other from the parent plant of pothos in the room of one of the inventors (Tanaka) were collected. Among them, 3 cuttings were cultured by hydroponics with the use of only water and the remaining three were cultured in water containing ginsenoside Rb1 at a concentration of 100 fg/ml. FIG. 9 is a photograph in place of drawing.
# Then, we have further continued cultivation of the above cuttings with hydroponics and on day 22, again photographs were taken. FIG. 10 is a photograph in place of drawing. Left photograph in FIG. 10 is the cuttings of pothos cultured with only water for 22 days and right photograph in FIG. 10 is the cuttings cultured with water containing the low concentration of ginsenoside Rb1 (100 fg/ml). Waters with or without containing ginsenoside Rb1 for hydroponics were exchanged once in a week. We have further made observation of rooting region on day 27.
# Next, we have examined whether a crude saponin fraction of ginseng, like ginsenoside Rb1 at low concentrations, can promote, generation, regeneration or reconstruction of the cutting of pothos. For that purpose, two cuttings resembled with each other from the parent plant of pothos were collected. Among them, the one cutting was cultured with only water and the remaining one was cultured in water containing the crude saponin fraction of ginseng at a concentration of 1450 fg/ml. FIG. 11 is a photograph in place of drawing. Left photograph in FIG. 11 is the cutting cultured with only water and right photograph in FIG. 11 is the cutting cultured with water containing the crude saponin fraction of ginseng (1450 fg/ml). […]
smiles,measurement,setting,value
CC(C)=CCC[C@](C)(O[C@@H]1O[C@H](CO[C@@H]2O[C@H](CO)[C@@H](O)[C@H](O)[C@H]2O)[C@@H](O)[C@H](O)[C@H]1O)[C@H]1CC[C@]2(C)[C@@H]1[C@H](O)C[C@@H]1[C@@]3(C)CC[C@H](O[C@@H]4O[C@H](CO)[C@@H](O)[C@H](O)[C@H]4O[C@@H]4O[C@H](CO)[C@@H](O)[C@H](O)[C@H]4O)C(C)(C)[C@@H]3CC[C@]12C [ginsenoside Rb1],generation or regeneration of roots (FIG. 10),22 days,many roots were generated or regenerated
same,growth of root (FIG. 9),"day 13, vs water alone",growth of root is promoted
same,secondary rooting arising from the primary rooting regions,"day 27, none on cuttings in water only",clearly observed on all three cuttings
